According to publication PMC9201908, “Expansion of the Strigolactone Profluorescent Probes Repertory: The Right Probe for the Right Application” (Frontiers in Plant Science, 2022):
Values joined by “and” are separate entries in the source; they are usually repeats but may differ in a detail not shown here. Identical values can stand only once. Like-named read-outs stand apart in the source and are kept apart here.

Legend:
RMS3 protein [1] = target: T1, RMS3 protein (Pisum sativum, UniProt A0A109QYD3); assay: DSF binding assay on RMS3; settings: 10 µM RMS3, probe 0-400 µM
T1 construct: GST; made in house
T1 sequence (A0A109QYD3 1-267): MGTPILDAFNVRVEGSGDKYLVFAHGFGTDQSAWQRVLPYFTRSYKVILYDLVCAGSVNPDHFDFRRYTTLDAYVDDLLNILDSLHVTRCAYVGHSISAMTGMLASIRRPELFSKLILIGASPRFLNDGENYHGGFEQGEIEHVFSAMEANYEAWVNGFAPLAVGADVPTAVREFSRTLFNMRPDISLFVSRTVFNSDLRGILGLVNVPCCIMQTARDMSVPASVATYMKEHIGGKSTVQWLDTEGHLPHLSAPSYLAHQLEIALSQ
Excerpt: To search for a destabilization effect, which characterizes bioactive SL analogs with SL receptors, we performed DSF binding assay with our novel probes on RMS3 protein.
DSF assay with SL profluorescent probes. The melting temperature

[2] = tested on: rms1-10 pea mutant plants; assay: Pea shoot-branching assay by direct application on the bud, rms1-10; type: in vivo, Pisum sativum; settings: for Length of bud at node 3 /branch: direct application, rms1-10, 10 days after treatment, mean per replicate; for Bioactivity on shoot branching inhibition (bud development): rms1-10, direct application, result in words
Method: (§1) Pea (Pisum sativum) branching mutant plants used in this study were described previously (Rameau et al., [1997]). The SL biosynthesis rms1-10 (M3T-884) and SL response rms3-4 (M2T-30) mutants were obtained from the dwarf cv. Térèse. Plants were grown in a greenhouse under long days as described by Braun et al. ([2012]).
(§2) The compounds to be tested were applied directly to the axillary bud with a micropipette as 10 μL of a solution containing 0.1% of acetone with 2% of polyethylene glycol 1,450, 50% of ethanol, and 0.4% of DMSO. The control 0 is the treatment with 0.1% of DMSO without compound. A total of 24 plants were sown per treatment in trays (2 repetitions of 12 plants). The treatment was done 8 days after sowing, on the axillary bud at node 3. The branches at nodes 1–2 were removed to encourage the outgrowth of axillary buds at nodes above. Nodes were numbered acropetally from the first scale leaf as node 1 and cotyledonary node as node 0. Bud growth at node 3 was measured 10 days after treatment. Plants with damaged main shoot apex or showing a dead white treated bud were discarded from the analysis. The SL-deficient rms1-10 pea mutant was used for all experiments and WT Térèse as control. SL-perceived rms3-4 pea mutant was used to test that when bioactive, the analog acts via RMS3, and it was also used to check the putative toxicity of probes.

rms3-4 pea mutant plants = assay: Pea shoot-branching assay by direct application on the bud, rms3-4; type: in vivo, Pisum sativum; settings: 1,000 nM, rms3-4, 10 days after treatment
Method: as §1, §2

Ppccd8 mutant plants [3] = settings: WT and Ppccd8; ref Hoffmann et al., 2014; Lopez-Obando et al., 2021; cited from earlier work
[4] = tested on: rms1-10 pea mutant plants; settings: cited from earlier work; for Length of bud at node 3 /branch: direct application, rms1-10, tested previously, ref De saint Germain et al 2016
RMS3 protein [5] = target: T1, RMS3 protein; assay: Enzymatic assay with profluorescent probes, RMS3; type: biochemical; settings: probe 10 μM, RMS3 400 nM, 25°C, result in words
Ppccd8 mutant plants [6] = assay: Physcomitrium patens bioassay, number of filaments in the dark; type: in vivo; settings: 1 μM, Supplementary Figure 3
Method: Assays on Physcomitrium patens were performed on plants grown in 24-well plates, starting from very small pieces of moss tissues as described by Guillory and Bonhomme ([2021]). As for pea rms1, the Ppccd8 SL synthesis mutant was used for assays, since the effect of the compounds was better seen in this mutant vs. wild type (WT; Lopez-Obando et al., [2021]). For each treatment, 24 plants were grown in PpNO3 medium [minimal medium described by Ashton et al., [1979]], dispatched in three different plates. Plants were grown for 2 weeks under control conditions, then treated with fluorophores or probes (all compounds used at 1 μM), before being placed vertically in the dark for 10 days. A single picture of each well was taken under an Axio Zoom microscope (Zeiss) with a dedicated program. Filaments were counted using ImageJ software (http://imagej.nih.gov/ij/) as described by Guillory and Bonhomme ([2021]). Twenty-four plants were tested in each treatment.

| Molecule | Length of bud at node 3 /branch ([2]; 10 nM) | Length of bud at node 3 /branch ([2]; 100 nM) | Length of bud at node 3 /branch ([2]; 1,000 nM) | Length of bud at node 3 /branch ([2]; 10,000 nM) | Bioactivity on shoot branching inhibition (bud development) [2] | Cleavage kinetics by RMS3 (RMS3 protein [5]) | other results |
| --- | --- | --- | --- | --- | --- | --- | --- |
| COc1cc2ccc(=O)oc2cc1OC1C=C(C)C(=O)O1 (racemic) [(±)-GC379] | 3.54 mm | 2.81 mm and 5.02 mm and 3.98 mm and 14.32 mm | 3.38 mm and 3.19 mm and 3.65 mm and 3.04 mm | 2.17 mm | bioactive for the three tested concentrations |  | Destabilization of RMS3 (DSF) (RMS3 protein [1]): able to destabilize RMS3; Length of bud at node 3 /branch (rms3-4 pea mutant plants): 26.30 |
| CC1=CC(OC=C2C(=O)OC3c4ccccc4CC23)OC1=O (single isomer, unassigned; (+)) [(+)-GR24] |  |  |  |  |  |  | Effect on filament number (Ppccd8 mutant plants [3]): decrease in filament number |
| CCOC(=O)c1ccccc1-c1c2ccc(=O)cc-2oc2cc(OC3C=CC(=O)O3)ccc12 (racemic) [(±)-dYLG, reference compound] |  |  |  |  |  |  | Biological activity on branching inhibition ([4]; ref Yao et al., 2021): no biological activity |
| COc1cc2ccc(=O)oc2cc1OC1OC(=O)C(C)=C1C (racemic) [(±)-GC380] | 6.65 mm | 8.99 mm and 11.66 mm and 5.90 mm | 2.33 mm and 3.47 mm and 2.08 mm | 2.15 mm | bioactive for the three tested concentrations |  | Length of bud at node 3 /branch (rms3-4 pea mutant plants): 23.62 |
| CC1=C(C)C(Oc2ccc3nc4ccc(=O)cc-4oc3c2)OC1=O (racemic) [(±)-GC247, 7-[(3,4-Dimethyl-5-Oxo-2,5-Dihydrofuran-2-yl)Oxy]-3H-Phenoxazin-3-One] | 12.39 mm |  |  | 6.54 mm | inhibitory effect with statistical significance only at 10 μM | two-phase kinetic |  |
| 7-Hydroxycoumarin [reference compound] |  |  | 41.46 mm |  |  |  |  |
| Cc1cc(=O)oc2c(F)c(O)c(F)cc12 [DiFMU, 6,8-difluoro-7-hydroxy-4-methyl-2H-chromen-2-one, reference compound] |  |  | 14.76 mm |  |  |  |  |
| CC(=O)Oc1ccc2ccc(=O)oc2c1 [CoumarinAc, 7-Acetoxycoumarin] | 21.81 mm | 22.67 mm | 25.33 mm |  | no effect | slower velocity than DiFMUAc |  |
| O=c1ccc2nc3ccc(O)cc3oc-2c1 [Resorufin, reference compound] | 12.53 mm | 16.50 mm | 14.90 mm |  |  |  |  |
| CC1=C(C)C(Oc2ccc3ccc(=O)oc3c2)OC1=O (racemic) [(±)-GC155] | 5.97 mm and 16.85 mm and 8.43 mm | 3.68 mm and 4.11 mm and 2.71 mm and 5.98 mm and 1.83 mm | 1.98 mm and 1.45 mm and 1.92 mm and 1.96 mm and 2.38 mm and 2.32 mm | 2.06 mm | among the most bioactive molecules | two-phase kinetic | Destabilization of RMS3 (DSF) (RMS3 protein [1]): able to destabilize RMS3 |
| Cc1cc(=O)oc2c(F)c(OC3C=CC(=O)O3)c(F)cc12 (racemic) [(±)-GC486] | 24.70 mm | 22.10 mm | 23.14 mm |  | no biological activity | Michaelian kinetics | Length of bud at node 3 /branch ([4]; 1,000 nM): 9.26 mm; Length of bud at node 3 /branch ([4]; 5,000 nM): 17.41 mm; Activity on filament number, one bioassay replication (Ppccd8 mutant plants [6]): slight opposite effect |
